Tests used:
[1] = test system: organotypic hippocampal cultures (OHCs); experiment: Cell death (propidium iodide uptake, CA1) in organotypic hippocampal cultures treated with LPS; type: cell-based, Sprague-Dawley rats; conditions: LPS 1 μg/mL, 24 h
Method: With these promising data in hand, we selected compound 3b for its study in a more complex preparation. In vivo administration of LPS produces a proinflammatory cascade that causes memory deficits, an increase of inflammatory markers, and impairment of hippocampal glutamatergic transmission, contributing to neuronal death. All of these functional changes have been described to take place mainly in the hippocampus region. Thus, we subjected organotypic hippocampal cultures (OHCs) to LPS (1 μg/mL) to assess the protective effect of COX-1 inhibition. This kind of explant allows us to study the microglia-neuron network in a more complex and physiological model of cerebral insult.
OHCs were conducted on 8–10-day-old Sprague-Dawley rats supplied by the animal facilities of Universidad Autónoma de Madrid (Madrid, Spain). Cultures were prepared according to the methods described by Stoppini et al. with some modifications. […]
Cell death was determined in the CA1 region by staining the OHCs with propidium iodide (PI). Thirty minutes before analyzing fluorescence, slices were incubated with PI (1 µg/mL). Fluorescence was measured in an epifluorescence Olympus BX50WI microscope. […] Fluorescence was measured in each slice using ImageJ.

[2] = test system: BV2 microglia cells; experiment: ROS production (H2DCFDA) in LPS-treated BV2 microglia; type: cell-based; conditions: 3 μM, LPS 1 μg/mL, 24 h
Text: Activation of toll-like receptors (TLRs), particularly the TLR4 subtype, is closely associated with the production of reactive oxygen and nitrogen species that contribute to neuronal death in the CNS. In this connection, NADPH oxidase enzymes are the main ones responsible for ROS production induced by NF-κB nuclear translocation. For this reason, we decided to assess the ROS levels of BV2 microglia cells treated with LPS and the effect of our compounds under this toxicity protocol. To this end, the compounds, at different concentrations (3 μM of 3a, 3b, and 3d and 10 μM of 3c) were incubated with 1 μg/mL LPS for 24 h. After this period, ROS production was measured with the fluorescent probe H2DCFDA. Treatment with LPS increased by 1.75-fold the amount of ROS compared with control cells.
(§1) Cultures were seeded into flasks containing supplemented medium and kept at 37 °C in a humidified atmosphere of 5% CO2 and 95% air. For assays, BV-2 cells were subcultured in 48-well plates at a seeding density of 1 × 10^5 cells per well. Cells were treated with LPS (Sigma-Aldrich, Madrid, Spain) for 24 or 48 h before confluence in RPMI with 1% FBS.
To measure cellular ROS, we used the molecular probe 2′,7′-dichlorodihydrofluorescein diacetate (H2DCFDA). Glial cells were loaded with 5 µM H2DCFDA as it was previously described (Parada et al., 2015). Fluorescence was measured in a fluorescence microplate reader (FLUOstar Galaxy; BMG Labtech, Offenburg, Germany). Wavelengths of excitation and emission were 485 and 520 nm, respectively. The relative pixel intensity was measured in identical regions with (ImageJ 1.52a software, National Institutes of Health, Bethesda, MD, USA).

[3] = test system: BV2 microglia cells; experiment: Nitrite release (Griess reaction) in LPS-treated BV2 microglia; type: cell-based; conditions: LPS 1 μg/mL, basal = 100
Text: The COX-1 inhibition data prompted us to undertake further work on the activity of compounds 3 in a neuroinflammation situation. Once we had verified that the compounds studied were not toxic per se in microglia BV2 cells (see the data in Table S1), we measured the nitrites released to determine the efficacy of our compounds in reducing microglia activation. Nitric oxide is a potent mediator of the classic activated microglia phenotype (M1); in fact, the lack of nitrite release correlated with an anti-inflammatory microglia (M2) phenotype. Therefore, we evaluated the response of the BV2 microglia cells to a challenge of 1 μg/mL LPS. For this purpose, BV2 microglia cells were incubated with LPS, a well-known agonist of the toll-like receptor 4 (TLR4) that causes a neuroinflammatory response, in combination with increasing concentrations of our COX-1 inhibitors (1, 3, and 10 μM). […] Similar results were observed after 48 h of the LPS treatment.
as §1
The NO assay was performed using the previously reported protocols. Briefly, 100 μL of culture supernatants were mixed with the same volume of Griess assay regent (1% sulfanilamide (Sigma Aldrich, Madrid, Spain), 0.1% naphthylethylenediamine dihydrochloride, and 2.5% phosphoric acid). Ten minutes later, the 560-nm absorbance was measured.

[4] = test system: BV2 microglia cells; experiment: LPS-induced activated (ramified) phenotype of BV2 microglia; type: cell-based; conditions: 3 μM, LPS 1 μg/mL, 24 h
Text: Next, we set out to study the changes in microglia phenotype under this toxicity protocol. As mentioned above, microglia are comprised of variable morphology cells that are always adapting to the surrounding media and, therefore, to physiopathological conditions. Indeed, morphological appearance is well correlated with the different states of microglia activation. The microglia-activated phenotype (M1), which is the classical state of this kind of cell in response to proinflammatory insults such as LPS, is linked with the overexpression of a plethora of cytokines and inflammatory markers, namely TNF, IL-1β, IL-6, MCP-1 or CD11b. All of these markers are commonly associated with morphological changes towards an amoeboid phenotype in primary cultures or in in vivo studies. Nevertheless, it has been recently described that BV2 microglia, as well as macrophages, turn from rounded to spindle-shaped or multipolar phenotypes in response to various M1 proinflammatory stimuli such as LPS/IFNγ or spinal cord injury conditioned media. In this context, we assessed the ability of our compounds to prevent the morphological changes induced by LPS by analyzing the percentage of BV2 ramified cells (multipolar or spindle) over the total BV2 per field following cell incubation with our compounds and 1 μg/mL LPS for 24 h.
as §1

Cc1ccc(-c2cc(N)cc(-c3ccccc3)c2)cc1 [Compound 3b, 4-Methyl-5′-amino-m-terphenyl]
Cell death (PI uptake in CA1) induced by LPS [1]: reduced cell death induced by LPS almost to basal levels
ROS production induced by LPS [2]: significantly reverted ROS production almost to basal levels
Nitrite Release after 24 h ([3]; 1 μM): 123 ± 8%
Nitrite Release after 48 h ([3]; 1 μM): 140 ± 14%
Nitrite Release after 24 h ([3]; 3 μM): 100 ± 4 %
Nitrite Release after 48 h ([3]; 3 μM): 123 ± 10 %
Nitrite Release after 24 h ([3]; 10 μM): 105 ± 6 %
Nitrite Release after 48 h ([3]; 10 μM): 128 ± 10 %
Reduction of the number of BV2 ramified cells [4]: 60%
